Data reported in PubChem BioAssay (NCI).
Values joined by “and” are separate entries in the source; they are usually repeats but may differ in a detail not shown here. Equal entries are not always repeated.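 A five-concentration, 48-hour dose response in 96-well plates underlies each endpoint, interpolated linearly between surrounding concentrations. GI50 is the concentration that inhibits growth by half. Definition used: TGI = concentration required for complete inhibition of growth.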

Experiments:
Assay in all cases: NCI tumour cell line growth inhibition, 48 h
M14 melanoma = system: M14 melanoma
KM12 colon = system: KM12 colon
PC-3 prostate = system: PC-3 prostate
NCI-H522 lung = system: NCI-H522 lung
U251 CNS = system: U251 CNS
UACC-62 melanoma = system: UACC-62 melanoma
NCI/ADR-RES ovarian = system: NCI/ADR-RES ovarian
MALME-3M melanoma = system: MALME-3M melanoma
RPMI-8226 leukemia = system: RPMI-8226 leukemia
OVCAR-8 ovarian = system: OVCAR-8 ovarian
SN12C renal = system: SN12C renal
SR leukemia = system: SR leukemia
COLO 205 colon = system: COLO 205 colon
UACC-257 melanoma = system: UACC-257 melanoma
SF-539 CNS = system: SF-539 CNS
MDA-MB-435 = system: MDA-MB-435
SW-620 colon = system: SW-620 colon
A549 NSCLC = system: A549 NSCLC
SF-268 CNS = system: SF-268 CNS
K-562 leukemia = system: K-562 leukemia
HCC-2998 colon = system: HCC-2998 colon
SK-MEL-2 melanoma = system: SK-MEL-2 melanoma
OVCAR-3 ovarian = system: OVCAR-3 ovarian
T-47D breast = system: T-47D breast
OVCAR-5 ovarian = system: OVCAR-5 ovarian
CCRF-CEM leukemia = system: CCRF-CEM leukemia
SK-MEL-5 melanoma = system: SK-MEL-5 melanoma
SF-295 CNS = system: SF-295 CNS
HOP-92 NSCLC = system: HOP-92 NSCLC
HT29 colon = system: HT29 colon
SK-MEL-28 melanoma = system: SK-MEL-28 melanoma
HOP-62 NSCLC = system: HOP-62 NSCLC
TK-10 renal = system: TK-10 renal
HCT-116 colon = system: HCT-116 colon
786-0 renal = system: 786-0 renal
IGROV1 ovarian = system: IGROV1 ovarian
MOLT-4 leukemia = system: MOLT-4 leukemia
SK-OV-3 ovarian = system: SK-OV-3 ovarian
NCI-H226 lung = system: NCI-H226 lung
SNB-75 CNS = system: SNB-75 CNS
DU-145 prostate = system: DU-145 prostate
NCI-H460 lung = system: NCI-H460 lung
NCI-H23 lung = system: NCI-H23 lung
HL-60(TB) leukemia = system: HL-60(TB) leukemia
MCF7 breast = system: MCF7 breast
A498 renal = system: A498 renal
HS 578T breast = system: HS 578T breast
BT-549 breast = system: BT-549 breast
UO-31 renal = system: UO-31 renal
RXF 393 renal = system: RXF 393 renal
HCT-15 colon = system: HCT-15 colon
ACHN renal = system: ACHN renal
LOX IMVI melanoma = system: LOX IMVI melanoma
SNB-19 CNS = system: SNB-19 CNS
MDA-MB-231 breast = system: MDA-MB-231 breast
CAKI-1 renal = system: CAKI-1 renal
OVCAR-4 ovarian = system: OVCAR-4 ovarian

Q: For `CCCCCc1c(C)[nH]c(/C=C2\N=C(c3ccc[nH]3)C=C2Oc2ccc(OC)cc2)c1C`, which GI50 (M14 melanoma) is on record?
A: 0.167 µM and 0.0234 µM

Q: What about the TGI (M14 melanoma) of the same compound?
A: 0.458 µM and 0.0635 µM

Q: What about the GI50 (KM12 colon) of the same compound?
A: 0.0555 µM and 0.0314 µM

Q: What about the TGI (KM12 colon) of the same compound?
A: 0.622 µM and 0.185 µM

Q: What about the GI50 (PC-3 prostate) of the same compound?
A: 0.106 µM and 0.0275 µM

Q: What about the TGI (PC-3 prostate) of the same compound?
A: 1.03 µM

Q: What about the GI50 (NCI-H522 lung) of the same compound?
A: 0.0135 µM

Q: And the TGI (NCI-H522 lung)?
A: 0.19 µM

Q: And the GI50 (U251 CNS)?
A: 0.0811 µM and 0.026 µM

Q: What about the GI50 (UACC-62 melanoma) of the same compound?
A: 0.112 µM and 0.0271 µM

Q: And the TGI (UACC-62 melanoma)?
A: 0.272 µM and 0.0725 µM

Q: And the GI50 (NCI/ADR-RES ovarian)?
A: 0.37 µM and 0.203 µM

Q: And the TGI (NCI/ADR-RES ovarian)?
A: 2.13 µM and 1.14 µM

Q: And the GI50 (MALME-3M melanoma)?
A: 0.262 µM and 0.0744 µM

Q: And the TGI (MALME-3M melanoma)?
A: 1.34 µM and 0.261 µM

Q: What about the GI50 (RPMI-8226 leukemia) of the same compound?
A: 0.0896 µM and 0.0313 µM

Q: And the TGI (RPMI-8226 leukemia)?
A: 1.13 µM and 0.332 µM

Q: And the GI50 (OVCAR-8 ovarian)?
A: 0.18 µM and 0.0412 µM

Q: And the TGI (OVCAR-8 ovarian)?
A: 1.12 µM and 0.207 µM

Q: What about the GI50 (SN12C renal) of the same compound?
A: 0.2 µM and 0.0483 µM

Q: What about the TGI (SN12C renal) of the same compound?
A: 1.54 µM and 0.418 µM

Q: What about the GI50 (SR leukemia) of the same compound?
A: 0.0321 µM and 0.0291 µM

Q: What about the GI50 (COLO 205 colon) of the same compound?
A: 0.125 µM and 0.028 µM

Q: And the TGI (COLO 205 colon)?
A: 0.502 µM and 0.19 µM

Q: What about the GI50 (UACC-257 melanoma) of the same compound?
A: 0.125 µM

Q: What about the TGI (UACC-257 melanoma) of the same compound?
A: 0.998 µM

Q: And the GI50 (SF-539 CNS)?
A: 0.156 µM and 0.0431 µM

Q: And the TGI (SF-539 CNS)?
A: 0.551 µM and 0.212 µM

Q: And the GI50 (MDA-MB-435)?
A: 0.149 µM and 0.0331 µM

Q: What about the TGI (MDA-MB-435) of the same compound?
A: 0.387 µM and 0.153 µM

Q: What about the GI50 (SW-620 colon) of the same compound?
A: 0.0587 µM and 0.0252 µM

Q: What about the TGI (SW-620 colon) of the same compound?
A: 1.53 µM and 0.518 µM

Q: And the GI50 (A549 NSCLC)?
A: 0.0339 µM

Q: What about the TGI (A549 NSCLC) of the same compound?
A: 0.165 µM

Q: What about the GI50 (SF-268 CNS) of the same compound?
A: 0.154 µM and 0.0526 µM

Q: And the TGI (SF-268 CNS)?
A: 1.92 µM and 1.46 µM

Q: What about the GI50 (K-562 leukemia) of the same compound?
A: 0.0719 µM and 0.0435 µM

Q: What about the TGI (K-562 leukemia) of the same compound?
A: > 100 µM

Q: And the GI50 (HCC-2998 colon)?
A: 0.0963 µM and 0.0369 µM

Q: And the TGI (HCC-2998 colon)?
A: 6.44 µM and 1.91 µM

Q: What about the GI50 (SK-MEL-2 melanoma) of the same compound?
A: 0.116 µM and 0.0299 µM

Q: What about the TGI (SK-MEL-2 melanoma) of the same compound?
A: 0.302 µM and 0.0836 µM

Q: What about the GI50 (OVCAR-3 ovarian) of the same compound?
A: 0.156 µM and 0.0414 µM

Q: What about the TGI (OVCAR-3 ovarian) of the same compound?
A: 0.511 µM and 0.318 µM

Q: What about the GI50 (T-47D breast) of the same compound?
A: 0.193 µM and 0.0295 µM

Q: What about the TGI (T-47D breast) of the same compound?
A: 0.968 µM and 1.24 µM

Q: And the GI50 (OVCAR-5 ovarian)?
A: 0.128 µM and 0.0591 µM

Q: And the TGI (OVCAR-5 ovarian)?
A: 4.56 µM and 2.02 µM

Q: And the GI50 (CCRF-CEM leukemia)?
A: 0.0257 µM

Q: What about the TGI (CCRF-CEM leukemia) of the same compound?
A: > 100 µM

Q: And the GI50 (SK-MEL-5 melanoma)?
A: 0.0844 µM and 0.0187 µM

Q: What about the TGI (SK-MEL-5 melanoma) of the same compound?
A: 0.217 µM and 0.0466 µM

Q: And the GI50 (SF-295 CNS)?
A: 0.18 µM and 0.0775 µM

Q: And the TGI (SF-295 CNS)?
A: 0.735 µM and 0.437 µM

Q: What about the GI50 (HOP-92 NSCLC) of the same compound?
A: 0.145 µM and 0.0153 µM

Q: And the TGI (HOP-92 NSCLC)?
A: 0.575 µM and 0.101 µM

Q: And the GI50 (HT29 colon)?
A: 0.068 µM and 0.0214 µM

Q: And the TGI (HT29 colon)?
A: 1.94 µM and 1.26 µM

Q: What about the GI50 (SK-MEL-28 melanoma) of the same compound?
A: 0.231 µM and 0.0512 µM

Q: And the TGI (SK-MEL-28 melanoma)?
A: 0.904 µM and 0.281 µM

Q: What about the GI50 (HOP-62 NSCLC) of the same compound?
A: 0.159 µM and 0.0768 µM

Q: And the TGI (HOP-62 NSCLC)?
A: 1.69 µM and 1.49 µM

Q: And the GI50 (TK-10 renal)?
A: 0.335 µM and 0.0439 µM

Q: What about the TGI (TK-10 renal) of the same compound?
A: 1.69 µM and 0.331 µM

Q: And the GI50 (HCT-116 colon)?
A: 0.0373 µM and 0.0269 µM

Q: And the TGI (HCT-116 colon)?
A: 1.13 µM and 0.127 µM

Q: And the GI50 (786-0 renal)?
A: 0.141 µM and 0.0404 µM

Q: And the TGI (786-0 renal)?
A: 0.328 µM and 0.315 µM

Q: And the GI50 (IGROV1 ovarian)?
A: 0.244 µM and 0.0925 µM

Q: What about the TGI (IGROV1 ovarian) of the same compound?
A: 1.49 µM and 3.07 µM

Q: What about the GI50 (MOLT-4 leukemia) of the same compound?
A: 0.107 µM and 0.0481 µM

Q: And the TGI (MOLT-4 leukemia)?
A: 1.17 µM and 1.67 µM

Q: What about the GI50 (SK-OV-3 ovarian) of the same compound?
A: 0.392 µM and 0.141 µM

Q: And the TGI (SK-OV-3 ovarian)?
A: 2.25 µM and 1.39 µM

Q: And the GI50 (NCI-H226 lung)?
A: 0.118 µM and 0.139 µM

Q: And the GI50 (SNB-75 CNS)?
A: 0.204 µM and 0.0328 µM

Q: And the TGI (SNB-75 CNS)?
A: 0.559 µM and 0.316 µM

Q: And the GI50 (DU-145 prostate)?
A: 0.165 µM and 0.0387 µM

Q: And the TGI (DU-145 prostate)?
A: 4.38 µM and 1.52 µM

Q: What about the GI50 (NCI-H460 lung) of the same compound?
A: 0.085 µM and 0.038 µM

Q: What about the TGI (NCI-H460 lung) of the same compound?
A: 1.17 µM

Q: What about the GI50 (NCI-H23 lung) of the same compound?
A: 0.258 µM and 0.0806 µM

Q: And the TGI (NCI-H23 lung)?
A: 2.84 µM and 1.55 µM

Q: And the GI50 (HL-60(TB) leukemia)?
A: 0.209 µM

Q: What about the TGI (HL-60(TB) leukemia) of the same compound?
A: 0.924 µM

Q: What about the GI50 (MCF7 breast) of the same compound?
A: 0.0667 µM and 0.0358 µM

Q: What about the TGI (MCF7 breast) of the same compound?
A: 1.21 µM and 1.15 µM

Q: And the GI50 (A498 renal)?
A: 0.194 µM and 0.0304 µM

Q: And the TGI (A498 renal)?
A: 1.19 µM and 0.234 µM

Q: And the GI50 (HS 578T breast)?
A: 0.15 µM and 0.0228 µM

Q: And the TGI (HS 578T breast)?
A: 0.701 µM and 0.139 µM

Q: What about the GI50 (BT-549 breast) of the same compound?
A: 0.353 µM and 0.246 µM

Q: What about the TGI (BT-549 breast) of the same compound?
A: 2.6 µM and 2.36 µM

Q: What about the GI50 (UO-31 renal) of the same compound?
A: 0.151 µM and 0.0712 µM

Q: What about the TGI (UO-31 renal) of the same compound?
A: 0.313 µM and 0.232 µM

Q: What about the GI50 (RXF 393 renal) of the same compound?
A: 0.12 µM and 0.0294 µM

Q: And the TGI (RXF 393 renal)?
A: 0.567 µM and 0.244 µM

Q: And the GI50 (HCT-15 colon)?
A: 0.113 µM

Q: What about the TGI (HCT-15 colon) of the same compound?
A: 0.759 µM

Q: And the GI50 (ACHN renal)?
A: 0.18 µM and 0.0482 µM

Q: What about the GI50 (LOX IMVI melanoma) of the same compound?
A: 0.0406 µM and 0.0197 µM

Q: And the TGI (LOX IMVI melanoma)?
A: 0.289 µM and 0.0534 µM

Q: What about the GI50 (SNB-19 CNS) of the same compound?
A: 0.44 µM and 0.098 µM

Q: And the TGI (SNB-19 CNS)?
A: 1.99 µM

Q: And the GI50 (MDA-MB-231 breast)?
A: 0.0833 µM and 0.0117 µM

Q: What about the GI50 (CAKI-1 renal) of the same compound?
A: 0.136 µM and 0.0363 µM

Q: What about the TGI (CAKI-1 renal) of the same compound?
A: 0.449 µM and 0.333 µM

Q: What about the GI50 (OVCAR-4 ovarian) of the same compound?
A: 0.15 µM and 0.0221 µM

Q: And the TGI (OVCAR-4 ovarian)?
A: 2.02 µM
